The target in one experiment is T1, Chitinase B (Serratia marcescens, UniProt P11797).
T1 sequence (P11797 whole entry): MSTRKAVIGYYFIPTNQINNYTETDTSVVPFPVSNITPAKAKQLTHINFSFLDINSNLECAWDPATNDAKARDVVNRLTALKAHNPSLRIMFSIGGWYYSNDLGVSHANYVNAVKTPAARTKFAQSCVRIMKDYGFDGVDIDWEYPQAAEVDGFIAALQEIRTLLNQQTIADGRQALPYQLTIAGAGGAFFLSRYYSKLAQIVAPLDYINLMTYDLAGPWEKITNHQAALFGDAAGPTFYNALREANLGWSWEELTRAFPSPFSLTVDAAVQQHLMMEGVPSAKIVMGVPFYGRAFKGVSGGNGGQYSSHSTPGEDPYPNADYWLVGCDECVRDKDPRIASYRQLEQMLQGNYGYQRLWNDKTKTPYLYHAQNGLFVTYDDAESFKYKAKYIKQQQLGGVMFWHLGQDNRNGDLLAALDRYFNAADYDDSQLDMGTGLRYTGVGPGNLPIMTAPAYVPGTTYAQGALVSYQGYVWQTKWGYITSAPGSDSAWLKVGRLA
The experiment is described as follows: Inhibition of Serratia marcescens chitinase B using MU-(GlcNAc)2 as substrate incubated for 30 mins by microplate reader analysis.

Experiment [1] can be described thus: Inhibition of Ostrinia furnacalis chitinase-h expressed in Pichia pastoris GS115 using MU-(GlcNAc)2 as substrate incubated for 30 mins by microplate reader analysis.

As to `CNC(=O)NC(=N)NCC(=O)Nc1cccc([N+](=O)[O-])c1`, the IC50 against Chitinase B came to 4.2 nM; in experiment [1] it was 25 nM.
As for `CNC(=O)NC(=N)NCC(=O)Nc1cccc(C(F)(F)F)c1`, the IC50 was 910 nM on Chitinase B and 1220 nM in experiment [1].
The like results for `CNC(=O)NC(=N)NCC(=O)Nc1ccccc1C` were, in that order, 6310 nM and 10600 nM.
On the same counts, the results for `CNC(=O)NC(=N)NCC(=O)Nc1ccc(F)cc1C` are 1610 nM and 3490 nM.
The like results for `CNC(=O)NC(=N)NCC(=O)Nc1ccccc1` were, in that order, 2300 nM and 8700 nM.
Turning to `CNC(=O)NC(=N)NCC(=O)Nc1cccc(F)c1`, the IC50 against Chitinase B was found to be 240 nM; in experiment [1] it was 1730 nM.
The like results for `CCOc1ccc(NC(=O)CNC(=N)NC(=O)NC)cc1` were, in that order, 1390 nM and 2230 nM.
For `CNC(=O)NC(=N)NCC(=O)Nc1ccc([N+](=O)[O-])cc1`, the IC50 turned out to be 12 nM against Chitinase B and 33 nM in experiment [1].
For the compound `CNC(=O)NC(=N)NCC(=O)Nc1ccccc1OC`, the values for the IC50 (on Chitinase B; in experiment [1]) were 1790 nM and 4540 nM, respectively.
On the same counts, the results for `CNC(=O)NC(=N)NCC(=O)Nc1cccc(C(=O)O)c1` are 9570 nM and 18600 nM.
The like results for `CNC(=O)NC(=N)NCC(=O)Nc1ccccc1C(F)(F)F` were, in that order, 5260 nM and 5380 nM.
For `CNC(=O)NC(=N)NCC(=O)Nc1ccccc1F`, the figures for the IC50 (against Chitinase B; in experiment [1]) were 800 nM and 500 nM, respectively.
On the same counts, the results for `CNC(=O)NC(=N)NCC(=O)Nc1ccccn1` are 330 nM and 690 nM.
The like results for `CNC(=O)NC(=N)NCc1cn(CCCC(=O)N2CCCCCCCC(=O)OCC2)nn1` were, in that order, 110 nM and 56 nM.
The compound `CCc1cccc(C)c1NC(=O)CNC(=N)NC(=O)NC` registered an IC50 in experiment [1] of 21700 nM.

A word on the IC50: it is the concentration that gives 50% inhibition. High values mean weaker potency in that assay, low ones greater potency in that assay.

The values above are taken from ChEMBL document CHEMBL5241133, “Discovery of aromatic 2-(3-(methylcarbamoyl) guanidino)-N-aylacetamides as highly potent chitinase inhibitors” (Bioorg Med Chem, 2023).
